*1 amine or outer side, *2 acyl side, *3 side chain or, on linkers, in order; H or OH if unused. Where a SMILES comes first, the peptide text is derived from it. Bridges are numbered along the chain shown (N, C = ends). [ ]: non-standard residue; d: D form. The star is where a group is joined. Trp(1-CH2CO) = O=C([C@H](Cc1cn(CC(=O)[*:3])c2ccccc12)N[*:1])[*:2]; Dodecyloxycarbonyl = CCCCCCCCCCCCOC(=O)*; X4 = CCc1cccc(CC)c1-c1nc(*)c2ccccc2n1; Fmoc = O=C(OCC1c2ccccc2-c2ccccc21)*; Oleoyl = CCCCCCCC/C=C\CCCCCCCC(=O)*; X2 = COc1ccc2nc(-c3ccccc3)nc(*)c2c1; Hyp = O=C(O)[C@@H]1C[C@@H](O)CN1; X1 = COC(=O)c1ccc2cnc(*)nc2c1; NMeNle = CCCC[C@H](NC)C(=O)O; X6 = CCCCCCCCCCCCCCCCOC(=O)*; NMeA = CN[C@@H](C)C(=O)O; X3 = Brc1ccc2ncnc(*)c2c1; Dab = NCC[C@H](N)C(=O)O; Dap = NC[C@H](N)C(=O)O; X5 = CC(C)(C)SC(=O)*
What follows are compounds tested against T1, PD-1/PD-L1 (Homo sapiens, UniProt Q9NZQ7) (assay: PD-1/PD-L1 Homogenous Time-Resolved Fluorescence (HTRF) binding assay). Details: PD-L1-His 10 nM, PD-1-Ig 20 nM; soluble extracellular domains.
T1 construct: TVMV protease site linker (C); made in house; host or cells: HEK293T cells
T1 sequence (Q9NZQ7 18-239): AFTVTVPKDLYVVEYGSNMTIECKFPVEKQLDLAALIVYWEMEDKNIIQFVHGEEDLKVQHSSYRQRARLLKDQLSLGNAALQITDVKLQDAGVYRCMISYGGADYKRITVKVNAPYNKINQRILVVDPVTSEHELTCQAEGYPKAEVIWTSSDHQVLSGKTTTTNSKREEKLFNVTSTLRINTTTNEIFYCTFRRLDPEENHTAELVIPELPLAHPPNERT
From the text: Methods for Testing the Ability of Macrocyclic Peptides to Compete for the Binding of Pd-1 to Pd-L1 Using Homogenous Time-Resolved Fluorescence (Htrf) Binding Assays
The ability of the compounds of formula (I) to bind to PD-L1 was investigated using a PD-1/PD-L1 Homogenous Time-Resolved Fluorescence (HTRF) binding assay.
The interaction of PD-1 and PD-L1 can be assessed using soluble, purified preparations of the extracellular domains of the two proteins. The PD-1 and PD-L1 protein extracellular domains were expressed as fusion proteins with detection tags, for PD-1, the tag was the Fc portion of Immunoglobulin (PD-1-Ig) and for PD-L1 it was the 6 histidine motif (PD-L1-His). All binding studies were performed in an HTRF assay buffer consisting of dPBS supplemented with 0.1% […] bovine serum albumin and 0.05% (v/v) Tween-20. For the h/PD-L1-His binding assay, inhibitors were pre-incubated with PD-L1-His (10 nM final) for 15 m in 4 μl of assay buffer, followed by addition of PD-1-Ig (20 nM final) in 1 μl of assay buffer and further incubation for 15 m. HTRF detection was achieved using europium crypate-labeled anti-Ig (1 nM final) and allophycocyanin (APC) labeled anti-His (20 nM final). Antibodies were diluted in HTRF detection buffer and 5 μl was dispensed on top of the binding reaction. The reaction mixture was allowed to equilibrate for 30 minutes and the resulting signal (665 nm/620 nm ratio) was obtained using an EnVision fluorometer. Additional binding assays were established between the human proteins PD-1-Ig/PD-L2-His (20 & 5 nM, respectively) and CD80-His/PD-L1-Ig (100 & 10 nM, respectively).
Recombinant Proteins: Human PD-1 (25-167) with a C-terminal human Fc domain of immunoglobulin G (Ig) epitope tag [hPD-1(25-167)-3S-IG] and human PD-L1 (18-239) with a C-terminal His epitope tag [hPD-L1(18-239)-TVMV-His] were expressed in HEK293T cells and purified sequentially by Protein A affinity chromatography and size exclusion chromatography. Human PD-L2-His and CD80-His was obtained through commercial sources.
Table 1 lists the IC50 values for representative examples of this disclosure measured in the PD-1/PD-L1 Homogenous Time-Resolved Fluorescence (HTRF) binding assay.
`CCCC[C@H]1C(=O)N(C)[C@@H](CCCC)C(=O)N[C@@H](CC(C)C)C(=O)N[C@H](C(=O)NCC(N)=O)CSCC(=O)N[C@@H](Cc2ccc(O)cc2)C(=O)N(C)[C@@H](C)C(=O)N[C@@H](CC(N)=O)C(=O)N2CCC[C@H]2C(=O)N[C@@H](CNc2nc(-c3c(CC)cccc3CC)nc3ccccc23)C(=O)N[C@@H](CC(C)C)C(=O)N2C[C@H](O)C[C@H]2C(=O)N[C@@H](Cc2c[nH]c3ccccc23)C(=O)N[C@H]2CCNC(=O)Cn3cc(c4ccccc43)C[C@H](NC2=O)C(=O)N1C` [Example 1013] ({CH2CO}-Y[NMeA]NP[Dap](X4)L[Hyp]W[Dab][Trp(1-CH2CO)][NMeNle][NMeNle]LCG-NH2; lactam 9-10; thioether N-14) showed an IC50 of 41 nM.
In the case of `CCCC[C@H]1C(=O)N(C)[C@@H](CCCC)C(=O)N[C@@H](CC(C)C)C(=O)N[C@H](C(=O)NCC(N)=O)CSCC(=O)N[C@@H](Cc2ccc(O)cc2)C(=O)N(C)[C@@H](C)C(=O)N[C@@H](CC(N)=O)C(=O)N2CCC[C@H]2C(=O)N[C@@H](CNC(=O)OCC2c3ccccc3-c3ccccc32)C(=O)N[C@@H](CC(C)C)C(=O)N2C[C@H](O)C[C@H]2C(=O)N[C@@H](Cc2c[nH]c3ccccc23)C(=O)N[C@H]2CCNC(=O)Cn3cc(c4ccccc43)C[C@H](NC2=O)C(=O)N1C` [Example 1004] ({CH2CO}-Y[NMeA]NP[Dap](Fmoc)L[Hyp]W[Dab][Trp(1-CH2CO)][NMeNle][NMeNle]LCG-NH2; lactam 9-10; thioether N-14), the IC50 is reported as 16 nM.
`CCCC[C@H]1C(=O)N(C)[C@@H](CCCC)C(=O)N[C@@H](CC(C)C)C(=O)N[C@H](C(=O)NCC(N)=O)CSCC(=O)N[C@@H](Cc2ccc(O)cc2)C(=O)N(C)[C@@H](C)C(=O)N[C@@H](CC(N)=O)C(=O)N2CCC[C@H]2C(=O)N[C@@H](CNC(=O)SC(C)(C)C)C(=O)N[C@@H](CC(C)C)C(=O)N2C[C@H](O)C[C@H]2C(=O)N[C@@H](Cc2c[nH]c3ccccc23)C(=O)N[C@H]2CCNC(=O)Cn3cc(c4ccccc43)C[C@H](NC2=O)C(=O)N1C` [Example 1005] ({CH2CO}-Y[NMeA]NP[Dap](X5)L[Hyp]W[Dab][Trp(1-CH2CO)][NMeNle][NMeNle]LCG-NH2; lactam 9-10; thioether N-14) showed an IC50 of 0.58 nM.
`CCCC[C@H]1C(=O)N(C)[C@@H](CCCC)C(=O)N[C@@H](CC(C)C)C(=O)N[C@H](C(=O)NCC(N)=O)CSCC(=O)N[C@@H](Cc2ccc(O)cc2)C(=O)N(C)[C@@H](C)C(=O)N[C@@H](CC(N)=O)C(=O)N2CCC[C@H]2C(=O)N[C@@H](CNc2nc(Cl)nc3ccc(-c4ccccc4C)cc23)C(=O)N[C@@H](CC(C)C)C(=O)N2C[C@H](O)C[C@H]2C(=O)N[C@@H](Cc2c[nH]c3ccccc23)C(=O)N[C@H]2CCCC(=O)Cn3cc(c4ccccc43)C[C@H](NC2=O)C(=O)N1C` [Example 1007] was tested, and the IC50 was 1200 nM.
`CCCCCCCCCCCCOC(=O)NC[C@@H]1NC(=O)[C@@H]2CCCN2C(=O)[C@H](CC(N)=O)NC(=O)[C@H](C)N(C)C(=O)[C@H](Cc2ccc(O)cc2)NC(=O)CSC[C@@H](C(=O)NCC(N)=O)NC(=O)[C@H](CC(C)C)NC(=O)[C@H](CCCC)N(C)C(=O)[C@H](CCCC)N(C)C(=O)[C@@H]2Cc3cn(c4ccccc34)CC(=O)NCC[C@H](NC(=O)[C@H](Cc3c[nH]c4ccccc34)NC(=O)[C@@H]3C[C@@H](O)CN3C(=O)[C@H](CC(C)C)NC1=O)C(=O)N2` [Example 1001] ({CH2CO}-Y[NMeA]NP[Dap](Dodecyloxycarbonyl)L[Hyp]W[Dab][Trp(1-CH2CO)][NMeNle][NMeNle]LCG-NH2; lactam 9-10; thioether N-14) gave an IC50 of 280 nM.
`CCCC[C@H]1C(=O)N(C)[C@@H](CCCC)C(=O)N[C@@H](CC(C)C)C(=O)N[C@H](C(=O)NCC(N)=O)CSCC(=O)N[C@@H](Cc2ccc(O)cc2)C(=O)N(C)[C@@H](C)C(=O)N[C@@H](CC(N)=O)C(=O)N2CCC[C@H]2C(=O)N[C@@H](CNc2ncnc3ccc(Br)cc23)C(=O)N[C@@H](CC(C)C)C(=O)N2C[C@H](O)C[C@H]2C(=O)N[C@@H](Cc2c[nH]c3ccccc23)C(=O)N[C@H]2CCNC(=O)Cn3cc(c4ccccc43)C[C@H](NC2=O)C(=O)N1C` [Example 1015] ({CH2CO}-Y[NMeA]NP[Dap](X3)L[Hyp]W[Dab][Trp(1-CH2CO)][NMeNle][NMeNle]LCG-NH2; lactam 9-10; thioether N-14) showed an IC50 of 97 nM.
For `CCCCCCCC/C=C\CCCCCCCC(=O)NC[C@@H]1NC(=O)[C@@H]2CCCN2C(=O)[C@H](CC(N)=O)NC(=O)[C@H](C)N(C)C(=O)[C@H](Cc2ccc(O)cc2)NC(=O)CSC[C@@H](C(=O)NCC(N)=O)NC(=O)[C@H](CC(C)C)NC(=O)[C@H](CCCC)N(C)C(=O)[C@H](CCCC)N(C)C(=O)[C@@H]2Cc3cn(c4ccccc34)CC(=O)NCC[C@H](NC(=O)[C@H](Cc3c[nH]c4ccccc34)NC(=O)[C@@H]3C[C@@H](O)CN3C(=O)[C@H](CC(C)C)NC1=O)C(=O)N2` [Example 1003] ({CH2CO}-Y[NMeA]NP[Dap](Oleoyl)L[Hyp]W[Dab][Trp(1-CH2CO)][NMeNle][NMeNle]LCG-NH2; lactam 9-10; thioether N-14), the IC50 was > 10000 nM.
`CCCCCCCCCCCCCCCCOC(=O)NC[C@@H]1NC(=O)[C@@H]2CCCN2C(=O)[C@H](CC(N)=O)NC(=O)[C@H](C)N(C)C(=O)[C@H](Cc2ccc(O)cc2)NC(=O)CSC[C@@H](C(=O)NCC(N)=O)NC(=O)[C@H](CC(C)C)NC(=O)[C@H](CCCC)N(C)C(=O)[C@H](CCCC)N(C)C(=O)[C@@H]2Cc3cn(c4ccccc34)CC(=O)NCC[C@H](NC(=O)[C@H](Cc3c[nH]c4ccccc34)NC(=O)[C@@H]3C[C@@H](O)CN3C(=O)[C@H](CC(C)C)NC1=O)C(=O)N2` [Example 1002] ({CH2CO}-Y[NMeA]NP[Dap](X6)L[Hyp]W[Dab][Trp(1-CH2CO)][NMeNle][NMeNle]LCG-NH2; lactam 9-10; thioether N-14) showed an IC50 of 2200 nM.
For `CCCC[C@H]1C(=O)N(C)[C@@H](CCCC)C(=O)N[C@@H](CC(C)C)C(=O)N[C@H](C(=O)NCC(N)=O)CSCC(=O)N[C@@H](Cc2ccc(O)cc2)C(=O)N(C)[C@@H](C)C(=O)N[C@@H](CC(N)=O)C(=O)N2CCC[C@H]2C(=O)N[C@@H](CNc2nc(-c3ccccc3)nc3ccc(OC)cc23)C(=O)N[C@@H](CC(C)C)C(=O)N2C[C@H](O)C[C@H]2C(=O)N[C@@H](Cc2c[nH]c3ccccc23)C(=O)N[C@H]2CCNC(=O)Cn3cc(c4ccccc43)C[C@H](NC2=O)C(=O)N1C` [Example 1014] ({CH2CO}-Y[NMeA]NP[Dap](X2)L[Hyp]W[Dab][Trp(1-CH2CO)][NMeNle][NMeNle]LCG-NH2; lactam 9-10; thioether N-14), the IC50 was 49 nM.
Compound `CCCC[C@H]1C(=O)N(C)[C@@H](CCCC)C(=O)N[C@@H](CC(C)C)C(=O)N[C@H](C(=O)NCC(N)=O)CSCC(=O)N[C@@H](Cc2ccc(O)cc2)C(=O)N(C)[C@@H](C)C(=O)N[C@@H](CC(N)=O)C(=O)N2CCC[C@H]2C(=O)N[C@@H](CNc2ncc3ccc(C(=O)OC)cc3n2)C(=O)N[C@@H](CC(C)C)C(=O)N2C[C@H](O)C[C@H]2C(=O)N[C@@H](Cc2c[nH]c3ccccc23)C(=O)N[C@H]2CCNC(=O)Cn3cc(c4ccccc43)C[C@H](NC2=O)C(=O)N1C` [Example 1016] ({CH2CO}-Y[NMeA]NP[Dap](X1)L[Hyp]W[Dab][Trp(1-CH2CO)][NMeNle][NMeNle]LCG-NH2; lactam 9-10; thioether N-14) has an IC50 of 120 nM.

— patent US20230365628A1, “MACROCYCLIC IMMUNOMODULATORS” (Bristol-Myers Squibb Company, priority 2020, published 2023)
